target: T1, human BRS-3 (Homo sapiens, UniProt P32247); assay: BRS-3 receptor binding assay (radioligand filtration); details: read-out: BRS-3 binding IC50; selected compounds
T1 construct: expressed in transfected cells
T1 sequence (P32247 1-399): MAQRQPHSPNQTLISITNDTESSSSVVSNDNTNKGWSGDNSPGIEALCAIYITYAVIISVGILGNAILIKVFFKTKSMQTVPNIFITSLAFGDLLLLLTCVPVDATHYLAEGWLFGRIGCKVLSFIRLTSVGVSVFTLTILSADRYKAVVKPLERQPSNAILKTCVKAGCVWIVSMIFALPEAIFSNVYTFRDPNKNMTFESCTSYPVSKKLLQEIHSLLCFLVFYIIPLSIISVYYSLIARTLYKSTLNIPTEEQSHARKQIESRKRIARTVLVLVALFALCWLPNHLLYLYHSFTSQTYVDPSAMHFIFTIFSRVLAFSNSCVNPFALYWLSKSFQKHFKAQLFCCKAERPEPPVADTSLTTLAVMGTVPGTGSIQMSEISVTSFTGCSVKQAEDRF
Procedure: Dissociated cells were collected by centrifuging at 1000 rpm for 10 minutes. Cell pellets were resuspended and homogenized at 4° C. using a Polytron homogenizer (setting 40, 20 stokes) in approximately 10 mL membrane preparation buffer (10 mM Tris pH 7.4, 0.01 mM Pefabloc, 10 μM phosphoramidon and 40 μg/mL Bacitracin) per T175 flask. After centrifugation at 2200 rpm (1000×g) for 10 minutes at 4° C., the supernatant was transferred to a clean centrifuge tube and spun at 18,000 rpm (38,742×g) for 15 minutes. at 4° C.
The filters were washed five times with ice-cold washing buffer (1×PBS without Mg^++ and Ca^++). The radioactivity was determined by adding 30 μl of microscintillant/well after each plate was dried at room temperature overnight or placed at 50° C. for 1 hr.
The radioligand, [^3H]-1-{4-[(4,5-difluoro-2-hydroxycarbonylphenyl)phenyl]}-2-(4-cyclohexylmethyl-1H-imidazol-2-yl)ethane, was used for binding to receptor membranes generated with BRS3 from other species and was also utilized for the human receptor. […] After incubation for 1-2 hours at room temperature, membrane bound [^3H]-biphenyl was separated from free radiologand by filtering through GF/C filters presoaked in 1% PEI solution. The filters were washed five times with ice-cold washing buffer (50 mM Tris pH 7.4, 10 mM MgCl2, 2.5 mM EDTA and 0.02% Triton X-100). The radioactivity was determined by adding 30 μl of microscintillant/well after each plate was dried at room temperature overnight or placed at 50° C. for 1 hr.
A Packard Top Count was used to read the filter plates. The data in % inhibition of binding was plotted vs. the log molar concentration of receptor ligand (compound). The IC50 was reported as the inflection point of the resulting sigmoidal curve.

Row | IC50 [nM] | Compound
1 | 36 | O[C@@](Cc1nc(CC2(C(F)(F)F)CC2)c[nH]1)(c1ccc(-n2cccn2)cc1)C(F)(F)F [Example 31a, (2S)-1,1,1-trifluoro-2-[4-(1H-pyrazol-1-yl)phenyl]-3-(4-{[1-(trifluoromethyl)cyclopropyl]methyl}-1H-imidazol-2-yl)propan-2-ol]

same assay, conditions: selected compounds; read-out: BRS-3 binding IC50

Row | IC50 [nM] | Compound
2 | 56 | OC(Cc1nc(CC2(C(F)(F)F)CC2)c[nH]1)(c1ccc(-c2ccc(F)cn2)cc1)C(F)(F)F (single isomer, unassigned) [Example 55, 1,1,1-trifluoro-2-[4-(5-fluoropyridin-2-yl)phenyl]-3-(4-{[1-(trifluoromethyl)cyclopropyl]methyl}-1H-imidazol-2-yl)propan-2-ol]
3 | 12 | OC(Cc1nc(CC2(C(F)(F)F)CC2)c[nH]1)(c1ccc(-n2cccn2)cc1)C(F)F (single isomer, unassigned) [Example 72, 1,1-difluoro-2-[4-(1H-pyrazol-1-yl)phenyl]-3-(4-{[1-(trifluoro-methyl)cyclopropyl]methyl}-1H-imidazol-2-yl)propan-2-ol]
4 | 18 | CC(C)(C)Cc1c[nH]c(CC(O)(c2ccc(-c3ccc(F)cn3)cc2)C(F)(F)F)n1 (stereo not drawn) [Example 1, 3-[4-(2,2-dimethylpropyl)-1H-imidazol-2-yl]-1,1,1-trifluoro-2-[4-(5-fluoropyridin-2-yl)phenyl]propan-2-ol]
5 | 19 | CC(C)(C)Cc1c[nH]c(CC(C)(O)c2ccc(-c3ccc(F)cn3)cc2)n1 (stereo not drawn) [Example 4, 1-[4-(2,2-dimethylpropyl)-1H-imidazol-2-yl]-2-[4-(5-fluoropyridin-2-yl)phenyl]propan-2-ol]
6 | 15 | CC(C)(C)Cc1c[nH]c(CC(O)(c2ccc(-c3ccc(F)cn3)cc2)C(F)F)n1 (stereo not drawn) [Example 40, 3-[4-(2,2-dimethylpropyl)-1H-imidazol-2-yl]-1,1-difluoro-2-[4-(5-fluoropyridin-2-yl)phenyl]propan-2-ol]
7 | 71 | OC(Cc1nc(CC2(C(F)(F)F)CC2)c[nH]1)(c1ccc(-c2ccc(F)cn2)cc1)C(F)F (stereo not drawn) [Example 45, 1,1-difluoro-2-[4-(5-fluoropyridin-2-yl)phenyl]-3-(4-{[1-(trifluoromethyl)cyclopropyl]methyl}-1H-imidazol-2-yl)propan-2-ol]
8 | 54 | CC(O)(Cc1nc(CC2(C(F)(F)F)CC2)c[nH]1)c1ccc(-c2ccc(F)cn2)cc1 (stereo not drawn) [Example 49, 2-[4-(5-fluoropyridin-2-yl)phenyl]-1-(4-{[1-(trifluoromethyl)cyclopropyl]methyl}-1H-imidazol-2-yl)propan-2-ol]
9 | 19 | CC(O)(Cc1nc(CC2(C(F)(F)F)CC2)c[nH]1)c1ccc(-n2cccn2)cc1 (stereo not drawn) [Example 52, 2-[4-(1H-pyrazol-1-yl)phenyl]-1-(4-{[1-(trifluoromethyl)cyclopropyl]methyl}-1H-imidazol-2-yl)propan-2-ol]
10 | 23 | CC(C)(C)Cc1c[nH]c(CC(C)(O)c2ccc(-n3cccn3)cc2)n1 (stereo not drawn) [Example 60, 1-[4-(2,2-dimethylpropyl)-1H-imidazol-2-yl]-2-[4-(1H-pyrazol-1-yl)phenyl]propan-2-ol]
11 | 11 | CC(C)(C)Cc1c[nH]c(CC(O)(c2ccc(-n3cccn3)cc2)C(F)F)n1 (stereo not drawn) [Example 75, 3-[4-(2,2-dimethylpropyl)-1H-imidazol-2-yl]-1,1-difluoro-2-[4-(1H-pyrazol-1-yl)phenyl]propan-2-ol]
12 | 17 | CC(C)(C)Cc1c[nH]c(CC(O)(c2ccc(-n3cccn3)cc2)C(F)(F)F)n1 (stereo not drawn) [Example 78, 3-[4-(2,2-dimethylpropyl)-1H-imidazol-2-yl]-1,1,1-trifluoro-2-[4-(1H-pyrazol-1-yl)phenyl]propan-2-ol]
